Seven compounds from article PMC10718593, “Rational design, synthesis, molecular modeling, biological activity, and mechanism of action of polypharmacological norfloxacin hydroxamic acid derivatives” (RSC Medicinal Chemistry, 2023) can be followed below.

The structures appear in SMILES notation. ≈ marks a conversion by molar mass, not a printed value.

The subject of this assay is E. coli. Nature of the assay: microbe, parasite or virus in culture. Further details: Minimal inhibitory concentration, bacterial growth inhibition. As to conditions: Escherichia coli. The protocol:
Minimal inhibitory concentrations (MICs) were determined against a panel of test strains comprising Gram-negative, Gram-positive, and mycobacteria, including a fluoroquinolone-resistant, clinical isolate of E. coli and an MRSA strain that is also resistant to norfloxacin and ciprofloxacin (Table 1).
The compound `CCn1cc(C(=O)NO)c(=O)c2cc(F)c(N3CCN(C)CC3)cc21` [11a] yielded an MIC of 0.18 µM (≈ 0.0627 µg/mL).

For `CCCCCN1CCN(c2cc3c(cc2F)c(=O)c(C(=O)NO)cn3CC)CC1` [11d, 1-ethyl-6-fluoro-1,4-dihydro-N-hydroxy-7-(4-pentylpiperazin-1-yl)-4-oxoquinoline-3-carboxamide], the MIC is 0.3 µM (≈ 0.121 µg/mL).

On to `CCn1cc(C(=O)NO)c(=O)c2cc(F)c(N3CCN(Cc4ccc(Cl)cc4)CC3)cc21` [11f], for which the MIC came out at 1.08 µM (≈ 0.496 µg/mL).

Take `CCn1cc(C(=O)O)c(=O)c2cc(F)c(N3CCN(CN4CCCCC4)CC3)cc21` [19a, 1-ethyl-6-fluoro-1,4-dihydro-4-oxo-7-(4-((piperidin-1-yl)methyl)piperazin-1-yl)quinoline-3-carboxylic acid]: the MIC was 0.3 µM (≈ 0.125 µg/mL).

Compound `CCn1cc(C(=O)NO)c(=O)c2cc(F)c(N3CCN(CN4CCOCC4)CC3)cc21` [20b] displayed an MIC of 0.28 µM (≈ 0.121 µg/mL).

In the case of `CCn1cc(C(=O)NO)c(=O)c2cc(F)c(N3CCN(CN4C(=O)CCC4=O)CC3)cc21` [23a, 1-ethyl-6-fluoro-1,4-dihydro-N-hydroxy-4-oxo-7-(4-((2,5-dioxopyrrolidin-1-yl)methyl)piperazin-1-yl)quinoline-3-carboxamide], the MIC was found to be 0.56 µM (≈ 0.249 µg/mL).

Turning to `CCn1cc(C(=O)O)c(=O)c2cc(F)c(N3CCN(CNc4ccc([N+](=O)[O-])cc4)CC3)cc21` [compound 25, 25], the MIC came to 0.266 µM (≈ 0.125 µg/mL).
